This passage reports IC50 results from patent US6472526B1, “Imidazole derivatives having an inhibitory activity for farnesyl transferase and process for preparation thereof” (LG Chemical Ltd., priority 1997, dated 2002).

In test [1] the target is T1, Ras farnesyl transferase (Homo sapiens, UniProt P49354+P49356).
T1 construct: made in house
In words: In vitro inhibitory activity for Ras farnesyl transferase, H-Ras substrate. Particulars: recombinant farnesyl transferase 4.5 nM, Ras substrate protein 1.5 μM, tritium-farnesylpyrophosphate 0.15 μM, 30 minutes at 37° C.; read-out: H-Ras IC50. In kind it is biochemical. The procedure: In the present experiment, Ras farnesyl transferase produced by genetic recombination techniques according to the improved Pompliano's method (Pompliano et al., Biochemistry, 1992, 31, 3800) was used, and Ras substrate (Ras-CVLS) protein described in Korean Patent Appln. No. 97-14409 was used after it has been purified according to the known method (see, Chung et al., Biochimica et Biophysica Acta, 1992, 278, 1129).
The enzyme reaction was performed in 50 μl of 50 mM Sodium HEPES buffer solution containing 25 mM of potassium chloride, 25 mM of magnesium chloride, 10 mM of DTT and 50 μM of zinc chloride. 1.5 μM of Ras substrate protein, 0.15 μM of tritium-farnesylpyrophosphate and 4.5 nM of farnesyl transferase were used.
More specifically, in the initial step, farnesyl transferase was added to the above buffer solution, reaction was maintained for 30 minutes at 37° C. and then the reaction was stopped by adding 1 ml of ethanol solution containing 1M HCl. The formed precipitates were adsorbed to GF/B filter using Hopper harvestor(Hopper #FH 225V) for filter-binding, washed with ethanol, and then radioactivity of the dried filter was measured using LKB β counter. Enzyme titer was measured in the unsaturated state of substrate where the concentrations of Ras substrate protein and farnesyl transferase have quantitative relationship. The compound according to the present invention dissolved in dimethyl sulfoxide (DMSO) was added to the reaction solution in an amount of less than 5% of the total reaction solution, and then the enzyme inhibitory activity thereof was measured. The enzyme inhibitory activity was represented by percentage of the amount of farnesyl incorporated into the Ras substrate protein in the presence of the test compound to that in the absence of the test compound. IC50 of the test compound was defined as the concentration at which 50% of the enzyme activity was inhibited.

The target in test [2] is T1, Ras farnesyl transferase. The test is described as follows: In vitro inhibitory activity for Ras farnesyl transferase, K-Ras substrate. In kind it is biochemical. Particulars: in vitro farnesyl transferase assay, K-Ras; read-out: K-Ras IC50.
Test [3] deals with T2, Ras farnesyl transferase (Rattus norvegicus, UniProt Q02293+Q04631).
T2 construct: endogenous in cells; host or cells: Rat2 fibroblasts transformed with H-Ras or with an H-Ras/K-Ras C-terminus fusion
The test is described as follows: In vivo (cellular) inhibitory activity for Ras farnesyl transferase, Rat2 cell line which expresses C-Harvey-Ras protein. Type of test: cell-based. The settings on record: Rat2 cell line expressing C-Harvey-Ras; concentration inhibiting 50% of farnesyl bonding of Ras protein; read-out: H-Ras CIC50. The protocol: (§1) In the present experiment, Rat2 cell line which expresses C-Harvey-Ras protein having transforming activity and Rat2 cell line (Korean patent application No. 97-14409) which is transformed with fused protein of H-Ras substituted with polybasic lysine domain at C-terminus of K-Ras were used. The experiment was performed by the modified Declue's method (Declue. J. E. et al., Cancer Research, 1991, 51, 712). Hereinafter, the experimental method will be described in more detail.
(§2) 3×10^5 cells of transformed Rat2 fibroblast cell line were sprayed on 60 mm cell cultivation dish and cultivated for 48 hours in a cell incubator at 37° C. and after 50% or more of density was reached, it was treated with the test compounds. The compound according to the present invention dissolved in dimethylsulfoxide (DMSO) was used. 1% concentration of dimethylsulfoxide was used in both control and test groups. After 4 hours from the treatment with the compound, methionine labeled with 150 μCi of radioactive isotope [^35S] per 1 ml of medium was added and after cultivating for 20 hours, the cells were, washed with physiological saline water. The cells were lysed using 1 ml of cold cell lysis buffer solution (50 mM of Sodium HEPES buffer solution containing 5mM of magnesium chloride, 1 mM of DTT, 1% NP 40, 1 mM of EDTA, 1 mM of PMSF, 2 μM of leupeptin, 2 μM of pepstatin A and 2 μM of antipain) and the supernatant wherein the cells were lysed was obtained by high-velocity centrifugation of 12,000 g×5 minutes. The amount of radioisotope in the supernatant was measured and standardized to obtain a quantitative result in immunoprecipitation reaction and then, Y13-259, a monoclonal antibody specifically binding to Ras protein (Furth, M. E. et al., J. Virol, 1982, 43, 294) was added and reacted for 15 hours at 4° C. Protein A(combined with goat anti-murine immunoglobulin antibody)-agarose suspension was added to the solution and reacted for 1 hour at 4° C. and then, to remove the unspecific binding product, immunoprecipitates were washed with a buffer solution (50 mM Tris chloride buffer solution containing 50 mM of sodium chloride, 0.5% of sodium dioxycolate, 0.5% of NP 40 and 0.1% of SDS). The precipitates were added to a buffer solution for electrophoresis and boiled and then, electrophoresis was performed using 13.5% of SDS polyacrylamide gel. After electrophoresis, the gel was fixed and dried. Then, the gel was exposed to X-ray film, developed printed. From the result of the experiment, intensities of band of in combined with or without farnesyl of Ras protein were measured, the concentration of the test compound inhibiting 50% of farnesyl bonding was defined as […], an in vivo Ras farnesyl transferase inhibitory activity.

In test [4] the target is T2, Ras farnesyl transferase. In words: In vivo (cellular) inhibitory activity for Ras farnesyl transferase, Rat2 cell line transformed with fused protein of H-Ras substituted with polybasic lysine domain at C-terminus of K-Ras. The settings on record: Rat2 cell line transformed with H-Ras fused with polybasic lysine domain of K-Ras C-terminus; concentration inhibiting 50% of farnesyl bonding; read-out: K-Ras CIC50. In kind it is cell-based. The procedure:
as §1, §2

For the molecule “1-[1-(4-Methoxybenzyl)-1H-imidazol-5-yl]methyl-3-[N-(2-methoxyethyl)-N-methyl]carbamoyl-4-(naphthalen-1-yl)-1H-pyrrole [Compound 129]”, the IC50 in test [1] was 3 nM; in test [2], 4 nM; in test [3], 25 nM; in test [4] it was 10000 to 50000 nM.

In the case of `COCCN(C)C(=O)c1cn(Cc2cncn2C(C)c2ccccc2)cc1-c1cccc2ccccc12` (stereo in doubt) [Compound 8, 3-[N-(2-Methoxyethyl)-N-methyl]carbamoyl-1-[1-((R)-α-methylbenzyl)-1H-imidazol-5-ylmethyl]-4-(naphthalen-1-yl)-1H-pyrrole], the IC50 in test [1] is 4 nM; in test [2], 8 nM; in test [3], 25 nM; in test [4] it was 10000 to 50000 nM.

As for `CC(c1ccccc1)n1cncc1Cn1cc(C(=O)N2CCOCC2)c(-c2cccc3ccccc23)c1` (stereo in doubt) [Compound 9, 1-[1-((R)-α-Methylbenzyl)-1H-imidazol-5-ylmethyl]-3-(morpholin-4-yl)carbonyl-4-(naphthalen-1-yl)-1H-pyrrole], the IC50 was 5 nM in test [1], 6.6 nM in test [2], 25 nM in test [3] and 10000 to 50000 nM in test [4].

As to `CC(c1ccccc1)n1cncc1Cn1cc(C(=O)N2CCN(C)CC2)c(-c2cccc3ccccc23)c1` (stereo in doubt) [Compound 10, 1-[1-((R)-α-Methylbenzyl)-1H-imidazol-5-ylmethyl]-3-(4-methylpiperazin-1-yl)carbonyl-4-(naphthalen-1-yl)-1H-pyrrole], the IC50 in test [1] is 0.85 nM; in test [2], 5 nM; in test [3], 12.5 nM; in test [4], 10000 to 50000 nM.

Turning to `Cn1cncc1Cn1cc(C(=O)N2CCOCC2)c(-c2cccc3ccccc23)c1` [Compound 99, 1-(1-Methyl-1H-imidazol-5-yl)methyl-3-(morpholin-4-yl)carbonyl(naphthalen-1-yl)-1H-pyrrole], the values for the IC50 in test [3] and in test [4] were 100 nM and more than 50000 nM, respectively.

In the case of `COCCN(C)C(=O)c1nc(Cc2cncn2Cc2ccc(Cl)cc2)sc1-c1cccc2ccccc12` [Compound 147, 2-[1-(4-Chlorobenzyl)-1H-imidazol-5-ylmethyl]-4-[N-(2-methoxy)ethyl-N-methylcarbamoyl]-5-(naphthalen-1-yl)thiazole], the IC50 in test [1] stood at 2 nM; in test [2] it was 30 nM; in test [3], 50 nM.

For the molecule `COCCN(C)C(=O)c1cn(Cc2cncn2CC2CCN(C(=O)OCc3ccccc3)CC2)nc1-c1cccc2ccccc12` [Compound 152, 1-[1-(1-Benzyloxycarbonyl-piperidin-4-ylmethyl)-1H-imidazol-5-ylmethyl]-4-[N-(2-methoxyethyl)-N-methyl]carbamoyl-3-(naphthalen-1-yl)-1H-pyrazole], the IC50 in test [1] stood at 23 nM; in test [2], 70 nM; in test [3], 100 nM.

Regarding `COCCN(C)C(=O)c1cn(Cc2cncn2CC2CCN(C(=O)OC)CC2)nc1-c1cccc2ccccc12` [Compound 153, 1-[1-(1-Methoxycarbonylpiperidin-4-ylmethyl)-1H-imidazole-5-ylmethyl]-4-[N-(2-methoxyethyl)-N-methyl]-carbamoyl-3-(naphthalen-1-yl)-1H-pyrazole], the IC50 in test [1] came to 30 nM; in test [2], 100 nM; in test [3] it was 150 nM.

With `COCCN(C)C(=O)c1cn(Cc2cncn2Cc2ccc(Br)cc2)nc1-c1cccc2ccccc12` [Compound 154, 1-[1-(4-Bromobenzyl)-1H-imidazol-5-ylmethyl]-4-[N-(2-methoxyethyl)-N-methyl]-carbamoyl-3-(naphthalen-1-yl)-1H-pyrazole], the IC50 in test [1] is 30 nM; in test [2] it was 200 nM; in test [3], 150 nM.

With `COC(=O)N1CCC(Cn2cncc2Cn2cc(C(=O)N3CCOCC3)c(-c3cccc4ccccc34)n2)CC1` [Compound 159], the IC50 in test [1] was determined as 300 nM; in test [2], 4000 nM; in test [3], 1200 nM.
